Test results published in ChEMBL document CHEMBL5137044, “Expansion of the S-CN-DABO scaffold to exploit the impact on inhibitory activities against the non-nucleoside HIV-1 reverse transcriptase” (Eur J Med Chem, 2022).

Columns and labels:
[1] = test system: Human immunodeficiency virus 1; assay: Antiviral activity against […] HIV-1 infected in human MT4 cells assessed as reduction in virus-induced cytopathic effect incubated for 5 days by MTT assay; format: functional, organism-based; conditions: Human immunodeficiency virus 1, MT4, 120 h
[2] = Cytotoxicity against human MT4 cells assessed as cell growth inhibition incubated for 5 days by MTT assay; format: toxicity, cell-based; conditions: time 5 day
[3] = Selectivity index, ratio of CC50 for human MT4 cells to EC50 for antiviral activity against NNRTI resistant HIV-1 infected in human MT4 cells; format: toxicity, cell-based; conditions: read-out: Ratio CC50/EC50
[4] = test system: Human immunodeficiency virus 1; assay: Antiviral activity against drug-resistant HIV-1 L100I mutant infected in human MT4 cells assessed as reduction in virus-induced cytopathic effect incubated for 5 days by MTT assay; format: functional, organism-based; conditions: Human immunodeficiency virus 1, L100I mutant, MT4, 120 h
[5] = test system: Human immunodeficiency virus 1; assay: Antiviral activity against drug-resistant HIV-1 K103 N mutant infected in human MT4 cells assessed as reduction in virus-induced cytopathic effect incubated for 5 days by MTT assay; format: functional, organism-based; conditions: Human immunodeficiency virus 1, K103 N mutant, MT4, 120 h
[6] = test system: Human immunodeficiency virus 1; assay: Antiviral activity against drug-resistant HIV-1 Y181C mutant infected in human MT4 cells assessed as reduction in virus-induced cytopathic effect incubated for 5 days by MTT assay; format: functional, organism-based; conditions: Human immunodeficiency virus 1, Y181C mutant, MT4, 120 h
[7] = test system: Human immunodeficiency virus 1; assay: Antiviral activity against drug-resistant HIV-1 Y188L mutant infected in human MT4 cells assessed as reduction in virus-induced cytopathic effect incubated for 5 days by MTT assay; format: functional, organism-based; conditions: Human immunodeficiency virus 1, Y188L mutant, MT4, 120 h
[8] = test system: Human immunodeficiency virus 1; assay: Antiviral activity against drug-resistant HIV-1 E138K mutant infected in human MT4 cells assessed as reduction in virus-induced cytopathic effect incubated for 5 days by MTT assay; format: functional, organism-based; conditions: Human immunodeficiency virus 1, E138K mutant, MT4, 120 h
[9] = biological target: Human immunodeficiency virus type 1 reverse transcriptase (Human immunodeficiency virus 1, UniProt Q72547); assay: Inhibition of recombinant wild-type p66/p51 HIV-1 reverse transcriptase incubated for 40 mins by picogreen dye-based spectrofluorometric analysis
[10] = Fold resistance, ratio of EC50 for antiviral activity against drug-resistant HIV-1 L100I mutant infected in human MT4 cells to EC50 for antiviral activity against […] HIV-1 infected in human MT4 cells; format: functional
[11] = Fold resistance, ratio of EC50 for antiviral activity against drug-resistant HIV-1 K103 N mutant infected in human MT4 cells to EC50 for antiviral activity against […] HIV-1 infected in human MT4 cells; format: functional
[12] = Fold resistance, ratio of EC50 for antiviral activity against drug-resistant HIV-1 Y181C mutant infected in human MT4 cells to EC50 for antiviral activity against […] HIV-1 infected in human MT4 cells; format: functional
[13] = Fold resistance, ratio of EC50 for antiviral activity against drug-resistant HIV-1 Y188L mutant infected in human MT4 cells to EC50 for antiviral activity against […] HIV-1 infected in human MT4 cells; format: functional
[14] = Fold resistance, ratio of EC50 for antiviral activity against drug-resistant HIV-1 E138K mutant infected in human MT4 cells to EC50 for antiviral activity against […] HIV-1 infected in human MT4 cells; format: functional
Cytochrome P450 2D6 = Cytochrome P450 2D6 (Homo sapiens, UniProt P10635); assay: Inhibition of CYP2D6 in human liver microsomes incubated for 15 to 40 mins in presence of NADPH; format: ADME, Microsome
Chain of Cytochrome P450 2D6 (P10635 whole entry): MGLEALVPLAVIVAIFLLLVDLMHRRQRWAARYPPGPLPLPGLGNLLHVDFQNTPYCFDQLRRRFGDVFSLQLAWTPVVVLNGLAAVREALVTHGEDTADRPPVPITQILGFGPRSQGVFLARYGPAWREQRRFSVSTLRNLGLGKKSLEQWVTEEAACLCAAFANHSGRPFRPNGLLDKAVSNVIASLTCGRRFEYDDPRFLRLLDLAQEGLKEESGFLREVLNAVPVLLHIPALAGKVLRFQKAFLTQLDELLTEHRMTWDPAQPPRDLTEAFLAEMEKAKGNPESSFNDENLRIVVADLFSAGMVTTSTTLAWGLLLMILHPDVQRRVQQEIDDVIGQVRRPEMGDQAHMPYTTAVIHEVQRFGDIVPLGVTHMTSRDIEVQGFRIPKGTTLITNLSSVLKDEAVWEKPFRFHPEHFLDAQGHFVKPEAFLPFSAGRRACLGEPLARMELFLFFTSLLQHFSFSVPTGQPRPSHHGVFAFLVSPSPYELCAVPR

Row | SMILES | EC50 [1] [nM] | CC50 at 120 h [2] [µM] | selectivity ratio [3] | EC50 [4] [µM] | EC50 [5] [µM] | EC50 [6] [µM] | EC50 [7] [µM] | EC50 [8] [nM] | IC50 [9] [nM] | Ratio EC50 [10] | Ratio EC50 [11] | Ratio EC50 [12] | Ratio EC50 [13] | Ratio EC50 [14] | IC50 (Cytochrome P450 2D6) [nM]
1 | Cc1cccc(C(C#N)c2nc(SC(C)C)[nH]c(=O)c2C)c1 (centres undefined) | 141 | 167 | 1180 | 2.06 | 20.9 | 4.41 | 65.4 | 370 | 271 | 15 | 148 | 31 | 464 | 3 | 
2 | COc1ccc2c(c1)[C@]13CCCC[C@@H]1[C@H](C2)N(C)CC3 [DEXTROMETHORPHAN] |  |  |  |  |  |  |  |  |  |  |  |  |  |  | 40.8
3 | Cc1c(C(C#N)c2c(F)cccc2Cl)nc(SC(C)C)[nH]c1=O (centres undefined) | 18.4 | 74.7 | 4050 | 1.06 | 3.3 | 1.4 | > 58.7 | 90 | 74 | 58 | 179 | 76 | 3191 | 5 | 
4 | Cc1c(C(C#N)c2ccccc2Cl)nc(SC(C)C)[nH]c1=O (centres undefined) | 68 | 89.2 | 1320 | 1.78 | 9.91 | 3.47 | 54.9 | 80 | 79 | 26 | 146 | 51 | 807 | 1 | 
5 | Cc1c(C(C#N)c2ccc(C(F)(F)F)cc2)nc(SC(C)C)[nH]c1=O (centres undefined) | 5300 | 39.8 | 8 | > 39.8 | > 39.8 | > 39.8 | > 39.8 | 9110 | 13300 | >8 | >8 | >8 | >8 | 2 | 
6 | Cc1c(C(C#N)c2ccccc2)nc(SC(C)C)[nH]c1=O (centres undefined) | 370 | 204 | 547 | 10.3 | 68.3 | 9.21 | > 204 | 870 | 1510 | 28 | 185 | 25 | >550 | 2 | 
7 | COc1cc(F)cc(C(C#N)c2nc(SC(C)C)[nH]c(=O)c2C)c1 (centres undefined) | 123 | 161 | 1310 | 3.94 | 23.1 | 5.23 | 54.4 | 350 | 236 | 32 | 188 | 43 | 442 | 3 | 
8 | Cc1c(C(C#N)c2cc(Cl)cc(Cl)c2)nc(SC(C)C)[nH]c1=O (centres undefined) | 660 | 28.9 | 44 | > 13.2 | > 28.9 | 11.4 | > 28.9 | 4220 | 479 | >20 | >44 | 17 | >44 | 6 | 
9 | Cc1c(C(C#N)c2ccccn2)nc(SC(C)C)[nH]c1=O (centres undefined) | 1470 | 304 | 207 | 45.9 | > 304 | 51.2 | > 304 | 3800 | 9400 | 31 | >207 | 35 | >207 | 3 | 
10 | Cc1c(C(C#N)c2ccc(Cl)nc2)nc(SC(C)C)[nH]c1=O (centres undefined) | 20600 | 216 | 10 | 32.3 | 41.3 | 41.3 | > 216 | 28600 | 203000 | 2 | 2 | 2 | >10 | 1 | 
11 | COc1cc(OC)cc(C(C#N)c2nc(SC(C)C)[nH]c(=O)c2C)c1 (centres undefined) | 670 | 41.1 | 61 | 3.36 | > 41.1 | > 41.1 | > 41.1 | 2540 | 2580 | 5 | >61 | >61 | >61 | 4 | 
12 | COc1ccccc1C(C#N)c1nc(SC(C)C)[nH]c(=O)c1C (centres undefined) | 40 | > 379 | > 9380 | 0.4 | 3.51 | 1.91 | 27.5 | 90 | 158 | 10 | 88 | 48 | 687 | 2 | 
13 | COc1cccc(C(C#N)c2nc(SC(C)C)[nH]c(=O)c2C)c1 (centres undefined) | 138 | 176 | 1280 | 2.78 | 28.2 | 5.82 | 62 | 360 | 1060 | 20 | 205 | 42 | 450 | 3 | 
